According to publication PMC7156458, “Synthetic biology based construction of biological activity-related library of fungal decalin-containing diterpenoid pyrones” (Nature Communications, 2020):

Target: Aβ42 (Homo sapiens, UniProt P05067)
Experiment: Th-T (thioflavin-T) assay of Aβ42 aggregation
Format: biochemical
Details: for Th-T assay plate reading, mean of three wells (Supplementary Fig. 47): source data, Ab alone and No Ab as controls

Chain of Aβ42 (P05067 672-713): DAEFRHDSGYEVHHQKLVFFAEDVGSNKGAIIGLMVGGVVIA

C=C1CC[C@@H]2[C@](C)(CC[C@H]3O[C@H](C=C(C)C)C[C@@]23C)[C@@H]1Cc1c(O)c(C)c(C)oc1=O [Compound 10, higginsianin A]
Th-T fluorescence, mean of three wells (Aβ42 aggregation time course, reading M117): 3.027 | Th-T fluorescence, mean of three wells (Aβ42 aggregation time course, reading M118): 3.005 | Th-T fluorescence, mean of three wells (Aβ42 aggregation time course, reading M119): 3.036 | Th-T fluorescence, mean of three wells (Aβ42 aggregation time course, reading M120): 3.024 | Th-T fluorescence, mean of three wells (Aβ42 aggregation time course, reading M121): 3.009 | Th-T fluorescence, mean of three wells (Aβ42 aggregation time course, reading M122): 2.9814 | Th-T fluorescence, mean of three wells (Aβ42 aggregation time course, reading M123): 3.007 | Th-T fluorescence, mean of three wells (Aβ42 aggregation time course, reading M124): 3.01 | Th-T fluorescence, mean of three wells (Aβ42 aggregation time course, reading M125): 2.994 | Th-T fluorescence, mean of three wells (Aβ42 aggregation time course, reading M126): 2.985 | Th-T fluorescence, mean of three wells (Aβ42 aggregation time course, reading M127): 3.018 | Th-T fluorescence, mean of three wells (Aβ42 aggregation time course, reading M128): 2.986 | Th-T fluorescence, mean of three wells (Aβ42 aggregation time course, reading M129): 2.997 | Th-T fluorescence, mean of three wells (Aβ42 aggregation time course, reading M130): 3.004 | Th-T fluorescence, mean of three wells (Aβ42 aggregation time course, reading M131): 2.988 | Th-T fluorescence, mean of three wells (Aβ42 aggregation time course, reading M132): 2.974 | Th-T fluorescence, mean of three wells (Aβ42 aggregation time course, reading M133): 2.995 | Th-T fluorescence, mean of three wells (Aβ42 aggregation time course, reading M134): 2.998 | Th-T fluorescence, mean of three wells (Aβ42 aggregation time course, reading M135): 3.001 | Th-T fluorescence, mean of three wells (Aβ42 aggregation time course, reading M136): 2.985 | Th-T fluorescence, mean of three wells (Supplementary Fig. 47, reading M137): 2.995 | Th-T fluorescence, mean of three wells (Supplementary Fig. 47, reading M138): 2.975 | Th-T fluorescence, mean of three wells (Supplementary Fig. 47, reading M139): 2.9735 | Th-T fluorescence, mean of three wells (Supplementary Fig. 47, reading M140): 2.981 | Th-T fluorescence, mean of three wells (Supplementary Fig. 47, reading M141): 2.969 | Th-T fluorescence, mean of three wells (Supplementary Fig. 47, reading M142): 2.937 | Th-T fluorescence, mean of three wells (Supplementary Fig. 47, reading M143): 3.01 | Th-T fluorescence, mean of three wells (Supplementary Fig. 47, reading M144): 2.949 | Th-T fluorescence, mean of three wells (Supplementary Fig. 47, reading M145): 2.953 | Th-T fluorescence, mean of three wells (Supplementary Fig. 47 source data, measurement M37 of time course): 3.026 | Th-T fluorescence, mean of three wells (Supplementary Fig. 47 source data, measurement M38 of time course): 3.058 | Th-T fluorescence, mean of three wells (Supplementary Fig. 47 source data, measurement M39 of time course): 3.066 | Th-T fluorescence, mean of three wells (Supplementary Fig. 47 source data, measurement M40 of time course): 3.0688 | Th-T fluorescence, mean of three wells (Supplementary Fig. 47 source data, measurement M41 of time course): 3.079 | Th-T fluorescence, mean of three wells (Supplementary Fig. 47 source data, measurement M42 of time course): 3.094 | Th-T fluorescence, mean of three wells (Supplementary Fig. 47 source data, measurement M43 of time course): 3.089 | Th-T fluorescence, mean of three wells (Supplementary Fig. 47 source data, measurement M44 of time course): 3.087 | Th-T fluorescence, mean of three wells (Supplementary Fig. 47 source data, measurement M45 of time course): 3.107 | Th-T fluorescence, mean of three wells (Supplementary Fig. 47 source data, measurement M46 of time course): 3.104 | Th-T fluorescence, mean of three wells (Supplementary Fig. 47 source data, measurement M47 of time course): 3.097 | Th-T fluorescence, mean of three wells (Supplementary Fig. 47 source data, measurement M48 of time course): 3.099 | Th-T fluorescence, mean of three wells (Supplementary Fig. 47 source data, measurement M49 of time course): 3.124 | Th-T fluorescence, mean of three wells (Supplementary Fig. 47 source data, measurement M50 of time course): 3.143 | Th-T fluorescence, mean of three wells (Supplementary Fig. 47 source data, measurement M51 of time course): 3.109 | Th-T fluorescence, mean of three wells (Supplementary Fig. 47 source data, measurement M52 of time course): 3.12 | Th-T fluorescence, mean of three wells (Supplementary Fig. 47 source data, measurement M53 of time course): 3.131 | Th-T fluorescence, mean of three wells (Supplementary Fig. 47 source data, measurement M54 of time course): 3.122 | Th-T fluorescence, mean of three wells (Supplementary Fig. 47 source data, measurement M55 of time course): 3.1161 | Th-T fluorescence, mean of three wells (Supplementary Fig. 47 source data, measurement M56 of time course): 3.112 | Th-T assay plate reading, mean of three wells (Supplementary Fig. 47) (measurement M1): 0.2982 | Th-T assay plate reading, mean of three wells (Supplementary Fig. 47) (measurement M2): 0.2966 | Th-T assay plate reading, mean of three wells (Supplementary Fig. 47) (measurement M3): 0.3112 | Th-T assay plate reading, mean of three wells (Supplementary Fig. 47) (measurement M4): 0.3288 | Th-T assay plate reading, mean of three wells (Supplementary Fig. 47) (measurement M5): 0.3791 | Th-T assay plate reading, mean of three wells (Supplementary Fig. 47) (measurement M6): 0.4184 | Th-T assay plate reading, mean of three wells (Supplementary Fig. 47) (measurement M7): 0.4946 | Th-T assay plate reading, mean of three wells (Supplementary Fig. 47) (measurement M8): 0.5732 | Th-T assay plate reading, mean of three wells (Supplementary Fig. 47) (measurement M9): 0.6554 | Th-T assay plate reading, mean of three wells (Supplementary Fig. 47) (measurement M10): 0.6998 | Th-T assay plate reading, mean of three wells (Supplementary Fig. 47) (measurement M11): 0.7388 | Th-T assay plate reading, mean of three wells (Supplementary Fig. 47) (measurement M12): 0.7839 | Th-T assay plate reading, mean of three wells (Supplementary Fig. 47) (measurement M13): 0.8524 | Th-T assay plate reading, mean of three wells (Supplementary Fig. 47) (measurement M14): 1.025 | Th-T assay plate reading, mean of three wells (Supplementary Fig. 47) (measurement M15): 1.367 | Th-T assay plate reading, mean of three wells (Supplementary Fig. 47) (measurement M16): 1.777 | Th-T fluorescence, mean of three wells (reading M17, Supplementary Fig. 47 source data): 2.114 | Th-T fluorescence, mean of three wells (reading M18, Supplementary Fig. 47 source data): 2.387 | Th-T fluorescence, mean of three wells (reading M19, Supplementary Fig. 47 source data): 2.598 | Th-T fluorescence, mean of three wells (reading M20, Supplementary Fig. 47 source data): 2.677 | Th-T fluorescence, mean of three wells (reading M21, Supplementary Fig. 47 source data): 2.685 | Th-T fluorescence, mean of three wells (reading M22, Supplementary Fig. 47 source data): 2.669 | Th-T fluorescence, mean of three wells (reading M23, Supplementary Fig. 47 source data): 2.723 | Th-T fluorescence, mean of three wells (reading M24, Supplementary Fig. 47 source data): 2.7479 | Th-T fluorescence, mean of three wells (reading M25, Supplementary Fig. 47 source data): 2.777 | Th-T fluorescence, mean of three wells (reading M26, Supplementary Fig. 47 source data): 2.823 | Th-T fluorescence, mean of three wells (reading M27, Supplementary Fig. 47 source data): 2.858 | Th-T fluorescence, mean of three wells (reading M28, Supplementary Fig. 47 source data): 2.868 | Th-T fluorescence, mean of three wells (reading M29, Supplementary Fig. 47 source data): 2.914 | Th-T fluorescence, mean of three wells (reading M30, Supplementary Fig. 47 source data): 2.924 | Th-T fluorescence, mean of three wells (reading M31, Supplementary Fig. 47 source data): 2.961 | Th-T fluorescence, mean of three wells (reading M32, Supplementary Fig. 47 source data): 2.958 | Th-T fluorescence, mean of three wells (reading M33, Supplementary Fig. 47 source data): 2.966 | Th-T fluorescence, mean of three wells (reading M34, Supplementary Fig. 47 source data): 3.0036 | Th-T fluorescence, mean of three wells (reading M35, Supplementary Fig. 47 source data): 3.001 | Th-T fluorescence, mean of three wells (reading M36, Supplementary Fig. 47 source data): 3.031 | Th-T fluorescence, mean of three wells (time course, reading M57): 3.145 | Th-T fluorescence, mean of three wells (time course, reading M58): 3.098 | Th-T fluorescence, mean of three wells (time course, reading M59): 3.0965 | Th-T fluorescence, mean of three wells (time course, reading M60): 3.12 | Th-T fluorescence, mean of three wells (time course, reading M61): 3.114 | Th-T fluorescence, mean of three wells (time course, reading M62): 3.124 | Th-T fluorescence, mean of three wells (time course, reading M63): 3.121 | Th-T fluorescence, mean of three wells (time course, reading M64): 3.089 | Th-T fluorescence, mean of three wells (time course, reading M65): 3.1417 | Th-T fluorescence, mean of three wells (time course, reading M66): 3.124 | Th-T fluorescence, mean of three wells (time course, reading M67): 3.125 | Th-T fluorescence, mean of three wells (time-course reading M97, Supplementary Fig. 47 source data): 3.037 | Th-T fluorescence, mean of three wells (time-course reading M98, Supplementary Fig. 47 source data): 3.037 | Th-T fluorescence, mean of three wells (time-course reading M99, Supplementary Fig. 47 source data): 3.05 | Th-T fluorescence, mean of three wells (time-course reading M100, Supplementary Fig. 47 source data): 3.074 | Th-T fluorescence, mean of three wells (time-course reading M101, Supplementary Fig. 47 source data): 3.025 | Th-T fluorescence, mean of three wells (time-course reading M102, Supplementary Fig. 47 source data): 3.036 | Th-T fluorescence, mean of three wells (time-course reading M103, Supplementary Fig. 47 source data): 3.034 | Th-T fluorescence, mean of three wells (time-course reading M104, Supplementary Fig. 47 source data): 3.0181 | Th-T fluorescence, mean of three wells (time-course reading M105, Supplementary Fig. 47 source data): 3.041 | Th-T fluorescence, mean of three wells (time-course reading M106, Supplementary Fig. 47 source data): 3.028 | Th-T fluorescence, mean of three wells (time-course reading M107, Supplementary Fig. 47 source data): 3.025 | Th-T fluorescence, mean of three wells (time-course reading M108, Supplementary Fig. 47 source data): 3.028 | Th-T fluorescence, mean of three wells (time-course reading M109, Supplementary Fig. 47 source data): 3.032 | Th-T fluorescence, mean of three wells (time-course reading M110, Supplementary Fig. 47 source data): 3.022 | Th-T fluorescence, mean of three wells (time-course reading M111, Supplementary Fig. 47 source data): 3.062 | Th-T fluorescence, mean of three wells (time-course reading M112, Supplementary Fig. 47 source data): 3.021 | Th-T fluorescence, mean of three wells (time-course reading M113, Supplementary Fig. 47 source data): 3.021 | Th-T fluorescence, mean of three wells (time-course reading M114, Supplementary Fig. 47 source data): 3.0544 | Th-T fluorescence, mean of three wells (time-course reading M115, Supplementary Fig. 47 source data): 3.028 | Th-T fluorescence, mean of three wells (time-course reading M116, Supplementary Fig. 47 source data): 3.017
